Like-named read-outs stand apart in the source and are kept apart here. Starred links: 1 amine or outer side, 2 acyl side, 3 side chain; linkers in the order of their positions; H or OH if unused. Positions of bridges follow the written chain, without caps; N, C: chain ends. Non-standard residues stand in square brackets, D forms with d. Residues, ends and D or L forms follow the SMILES beside them. *: point of attachment. X18 = CC(C(=O)[C@H](COC(C)(C)C)N[*:1])[C@@H](Cc1ccccc1)C(=O)[*:2]; NMeAla(4-thiazolyl) = CN[C@@H](Cc1cscn1)C(=O)O; X16 = O=C(C1CCCCC1)[C@H](CC(=O)[*:2])N[*:1]; NMeF = CN[C@@H](Cc1ccccc1)C(=O)O; NMeGABA = CN(CCCC(=O)[*:2])[*:1]; NMeD = CN[C@@H](CC(=O)O)C(=O)O; NMeL = CN[C@@H](CC(C)C)C(=O)O; NMeV = CN[C@H](C(=O)O)C(C)C; NMeA = CN[C@@H](C)C(=O)O; Piperidide = C1CCN(*)CC1; dNMeA = CN[C@H](C)C(=O)O; Sar = CNCC(=O)O; tBu = CC(C)(C)*
Test: Caco-2 membrane permeability, improved method as used in the following Examples (96-well, 20 to 24 h preincubation)
Type: in vitro ADME
Conditions: human
Method in brief: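 Papp (cm/sec) was derived from LC/MS of basal samples collected 180 min after apical dosing in FaSSIF/HBSS pH 6.0 with 1% DMSO, against a basal HBSS pH 7.4 receiver containing 4% BSA. Three-week Caco-2 cultures were first preincubated with compound in DMEM+FaSSIF at 37 °C for 20–24 h.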

CC(C)C[C@@H]1NC(=O)[C@H](Cc2ccccc2)N(C)C(=O)[C@H](COC(C)(C)C)NC(=O)[C@H](Cc2ccccc2)N(C)C(=O)[C@H](C)N(C)C(=O)[C@H](CC(C)C)N(C)C(=O)[C@@H]2CCCN2C(=O)N[C@@H](C(=O)N2CCCCC2)NC(=O)[C@H](Cc2ccccc2)N(C)C(=O)[C@H]([C@@H](C)O)NC(=O)[C@H](CC(C)C)N(C)C1=O [pd214]
Papp A→B at 180 min (Caco-2, Caco-2 (cm/sec)): 1.2 ×10⁻⁶ cm/s

CC(C)C[C@@H]1NC(=O)[C@H](Cc2ccccc2)N(C)C(=O)[C@@H](C(C)C)NC(=O)C[C@@H](C(=O)N2CCCCC2)NC(=O)[C@H](Cc2ccccc2)N(C)C(=O)[C@H](Cc2ccccc2)N(C)C(=O)[C@H](COC(C)(C)C)NC(=O)[C@H](CC(C)C)N(C)C(=O)CN(C)C(=O)[C@H]([C@@H](C)O)NC(=O)[C@H](CC(C)C)N(C)C1=O [pd215] ([dV][NMeF]L[NMeL]T[Sar][NMeL]S(tBu)[NMeF][NMeF]D-Piperidide; lactam N-11)
Papp A→B at 180 min (Caco-2, Caco-2 (cm/sec)): 1.2 ×10⁻⁶ cm/s

CC(C)C[C@H]1C(=O)N[C@@H](C(C)C)C(=O)N(C)[C@@H](Cc2ccccc2)C(=O)N(C)[C@@H](Cc2ccccc2)C(=O)N[C@@H](COC(C)(C)C)C(=O)N(C)[C@@H](CC(C)C)C(=O)N[C@@H]([C@@H](C)O)C(=O)N(C)[C@@H](Cc2ccccc2)C(=O)N(C)[C@@H](CC(C)C)C(=O)N[C@H](C(=O)C2CCCCC2)CC(=O)N(C)CCCC(=O)N1C [pd216] (cyclo([NMeF][NMeF]S(tBu)[NMeL]T[NMeF][NMeL][X16][NMeGABA][NMeL]V))
Papp A→B at 180 min (Caco-2, Caco-2 (cm/sec)): 1.2 ×10⁻⁶ cm/s

CC(C)C[C@@H]1NC(=O)[C@H](Cc2ccccc2)N(C)C(=O)[C@H](C)NC(=O)C[C@@H](C(=O)N2CCCCC2)NC(=O)[C@H](Cc2ccccc2)N(C)C(=O)[C@H](Cc2ccccc2)N(C)C(=O)[C@H](COC(C)(C)C)NC(=O)[C@H](CC(C)C)N(C)C(=O)CN(C)C(=O)[C@H]([C@@H](C)O)NC(=O)[C@H](CC(C)C)N(C)C1=O [pd217] (A[NMeF]L[NMeL]T[Sar][NMeL]S(tBu)[NMeF][NMeF]D-Piperidide; lactam N-11)
Papp A→B at 180 min (Caco-2, Caco-2 (cm/sec)): 1.1 ×10⁻⁶ cm/s

CC(C)C[C@@H]1NC(=O)[C@H](CC(C)C)N(C)C(=O)[C@H](C)N(C)C(=O)C[C@@H](C(=O)N(C)[C@@H](Cc2ccccc2)C(=O)N[C@@H](C)C(=O)N2CCCCC2)NC(=O)[C@H]([C@@H](C)O)NC(=O)[C@H](CC(C)C)N(C)C(=O)[C@H](Cc2ccccc2)NC(=O)[C@H](Cc2ccccc2)N(C)C(=O)[C@H](CC(C)C)N(C)C1=O [pd218] ([NMeA][NMeL]L[NMeL][NMeF]F[NMeL]TD[NMeF]A-Piperidide; lactam N-9)
Papp A→B at 180 min (Caco-2, Caco-2 (cm/sec)): 1.1 ×10⁻⁶ cm/s

CC(C)C[C@@H]1NC(=O)[C@H](Cc2ccccc2)C(C)C(=O)[C@H](COC(C)(C)C)NC(=O)[C@H](Cc2ccccc2)N(C)C(=O)[C@H](C)N(C)C(=O)[C@H](CC(C)C)N(C)C(=O)[C@H]2CCCN2C(=O)C[C@@H](C(=O)N2CCCCC2)N(C)C(=O)[C@H](Cc2ccccc2)N(C)C(=O)[C@H]([C@@H](C)O)NC(=O)[C@H](C(C)C)N(C)C1=O (stereo partly shown) [pd219] ([dP][NMeL][NMeA][NMeF][X18]L[NMeV]T[NMeF][NMeD]-Piperidide; lactam N-10)
Papp A→B at 180 min (Caco-2, Caco-2 (cm/sec)): 1.1 ×10⁻⁶ cm/s

CC(C)C[C@@H]1NC(=O)[C@H](Cc2ccccc2)N(C)C(=O)[C@H](COC(C)(C)C)NC(=O)[C@H](Cc2ccccc2)N(C)C(=O)[C@H](C)N(C)C(=O)[C@H](CC(C)C)N(C)C(=O)[C@@H](C)NC(=O)C[C@@H](C(=O)N2CCCCC2)NC(=O)[C@H](Cc2ccccc2)N(C)C(=O)[C@H]([C@@H](C)O)NC(=O)[C@H](CC(C)C)N(C)C1=O [pd220] ([dA][NMeL][NMeA][NMeF]S(tBu)[NMeF]L[NMeL]T[NMeF]D-Piperidide; lactam N-11)
Papp A→B at 180 min (Caco-2, Caco-2 (cm/sec)): 1.1 ×10⁻⁶ cm/s

CC(C)C[C@@H]1NC(=O)[C@H](Cc2ccccc2)N(C)C(=O)[C@@H](C(C)C)NC(=O)C[C@@H](C(=O)N2CCCCC2)NC(=O)[C@H](Cc2ccccc2)N(C)C(=O)[C@H](Cc2ccccc2)N(C)C(=O)[C@H](C(C)C)NC(=O)[C@H](CC(C)C)N(C)C(=O)CN(C)C(=O)[C@H]([C@@H](C)O)NC(=O)[C@H](CC(C)C)N(C)C1=O [pd221] ([dV][NMeF]L[NMeL]T[Sar][NMeL]V[NMeF][NMeF]D-Piperidide; lactam N-11)
Papp A→B at 180 min (Caco-2, Caco-2 (cm/sec)): 1.1 ×10⁻⁶ cm/s

CC[C@H](C)[C@@H]1NC(=O)[C@H](C)N(C)C(=O)C[C@@H](C(=O)N(C)[C@@H](Cc2ccccc2)C(=O)N[C@@H](C)C(=O)N2CCCCC2)NC(=O)[C@H](Cc2ccccc2)N(C)C(=O)CN(C)C(=O)[C@H]([C@@H](C)O)NC(=O)[C@H](C)N(C)C(=O)[C@H](C(C)C)N(C)C(=O)[C@H](Cc2ccccc2)NC(=O)[C@H](CC(C)C)N(C)C(=O)[C@H](CC(C)C)N(C)C1=O [pd222] ([NMeA]I[NMeL][NMeL]F[NMeV][NMeA]T[Sar][NMeF]D[NMeF]A-Piperidide; lactam N-11)
Papp A→B at 180 min (Caco-2, read-out: Caco-2): 1.1 ×10⁻⁶ cm/s

CC(C)C[C@@H]1NC(=O)[C@H](Cc2ccccc2)N(C)C(=O)[C@H](CC(C)C)N(C)C(=O)[C@@H](C)N(C)C(=O)C[C@@H](C(=O)N2CCCCC2)NC(=O)[C@H](CC(C)C)N(C)C(=O)[C@H](Cc2ccccc2)N(C)C(=O)[C@H]([C@@H](C)O)NC(=O)[C@H](Cc2ccccc2)N(C)C1=O [pd223] ([dNMeA][NMeL][NMeF]L[NMeF]T[NMeF][NMeL]D-Piperidide; lactam N-9)
Papp A→B at 180 min (Caco-2, Caco-2 (cm/sec)): 1.1 ×10⁻⁶ cm/s

CC(C)C[C@@H]1NC(=O)[C@H](Cc2ccccc2)N(C)C(=O)[C@@H](C)NC(=O)C[C@@H](C(=O)N2CCCCC2)N(C)C(=O)[C@H](Cc2ccccc2)N(C)C(=O)[C@H](Cc2ccccc2)N(C)C(=O)[C@H](COC(C)(C)C)NC(=O)[C@H](CC(C)C)N(C)C(=O)CN(C)C(=O)[C@H]([C@@H](C)O)NC(=O)[C@H](CC(C)C)N(C)C1=O [pd224] ([dA][NMeF]L[NMeL]T[Sar][NMeL]S(tBu)[NMeF][NMeF][NMeD]-Piperidide; lactam N-11)
Papp A→B at 180 min (Caco-2, Caco-2 (cm/sec)): 1 ×10⁻⁶ cm/s

CC[C@H](C)[C@@H]1NC(=O)[C@H](CC(C)C)N(C)C(=O)CN(C)C(=O)[C@H]([C@@H](C)O)NC(=O)[C@H](Cc2ccccc2)N(C)C(=O)[C@H](CC(C)C)NC(=O)[C@H](Cc2ccccc2)N(C)C(=O)[C@@H](CC(C)C)NC(=O)C[C@@H](C(=O)N2CCCCC2)NC(=O)[C@H](CC(C)C)N(C)C(=O)[C@H](Cc2ccccc2)N(C)C1=O [pd225] ([dL][NMeF]L[NMeF]T[Sar][NMeL]I[NMeF][NMeL]D-Piperidide; lactam N-11)
Papp A→B at 180 min (Caco-2, Caco-2 (cm/sec)): 1 ×10⁻⁶ cm/s

CC(C)C[C@@H]1NC(=O)[C@H](Cc2ccccc2)N(C)C(=O)[C@H](C)N(C)C(=O)C[C@@H](C(=O)N2CCCCC2)NC(=O)[C@H](CC(C)C)N(C)C(=O)[C@H](Cc2ccccc2)N(C)C(=O)[C@H](Cc2ccccc2)NC(=O)[C@H](Cc2cscn2)N(C)C(=O)[C@H](C)N(C)C(=O)[C@H]([C@@H](C)O)NC(=O)[C@H](CC(C)C)N(C)C1=O [pd226] ([NMeA][NMeF]L[NMeL]T[NMeA][NMeAla(4-thiazolyl)]F[NMeF][NMeL]D-Piperidide; lactam N-11)
Papp A→B at 180 min (Caco-2, Caco-2 (cm/sec)): 0.68 ×10⁻⁶ cm/s

Reference: patent publication US20200131669A1, “CYCLIC PEPTIDE COMPOUND HAVING HIGH MEMBRANE PERMEABILITY, AND LIBRARY CONTAINING SAME” (Chugai Seiyaku Kabushiki Kaisha, priority 2017, published 2020)
